According to patent publication US11077115B2, “Rorgamma modulators and uses thereof” (Genfit, priority 2017, dated 2021):

Tests used:
[1] = molecular target: T1, RORγt ligand-binding domain (RORγt-LBD) (Homo sapiens, UniProt P51449); test: Time-resolved FRET (TR-FRET) RORγt coactivator assay (RIP140 peptide displacement); type: biochemical; conditions: ligand-dependent coactivator-RORγt binding
T1 construct: 20 nM recombinantly expressed RORγ-LBD fused to GST
T1 sequence (P51449 269-508 limits assumed): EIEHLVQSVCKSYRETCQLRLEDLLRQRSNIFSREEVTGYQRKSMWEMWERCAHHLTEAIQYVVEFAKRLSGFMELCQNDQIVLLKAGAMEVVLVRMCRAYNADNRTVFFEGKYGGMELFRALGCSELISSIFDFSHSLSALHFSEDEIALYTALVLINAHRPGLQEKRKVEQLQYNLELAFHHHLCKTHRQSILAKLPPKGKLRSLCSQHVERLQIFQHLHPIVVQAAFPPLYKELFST
Outline: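 GST-tagged RORγt-LBD (20 nM) with 30 nM biotinylated RIP140 peptide, 1 nM streptavidin-terbium and 20 nM d2-anti-GST in CHAPS buffer with DTT, EDTA, BSA; 1% DMSO. Compounds 0.3 nM–30 μM, 2 h dark, room temperature. Coactivator displacement lowers TR-FRET signal; IC50 (μM) and Emax (%) derived.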

human RORγt [2] = molecular target: T2, human RORγt (Homo sapiens, UniProt P51449); test: IL-17 secretion from EL4 murine lymphoma overexpressing human RORγt; type: cell-based; design: V5-His (named only through the vector pcDNA3.1D/V5-His-TOPO); expressed in transfected cells; conditions: IL-17 secretion inhibition in human RORγt-transfected EL4 Tcells, PMA/ionomycin stimulation
T2 sequence (P51449 1-497 isoform P51449-2): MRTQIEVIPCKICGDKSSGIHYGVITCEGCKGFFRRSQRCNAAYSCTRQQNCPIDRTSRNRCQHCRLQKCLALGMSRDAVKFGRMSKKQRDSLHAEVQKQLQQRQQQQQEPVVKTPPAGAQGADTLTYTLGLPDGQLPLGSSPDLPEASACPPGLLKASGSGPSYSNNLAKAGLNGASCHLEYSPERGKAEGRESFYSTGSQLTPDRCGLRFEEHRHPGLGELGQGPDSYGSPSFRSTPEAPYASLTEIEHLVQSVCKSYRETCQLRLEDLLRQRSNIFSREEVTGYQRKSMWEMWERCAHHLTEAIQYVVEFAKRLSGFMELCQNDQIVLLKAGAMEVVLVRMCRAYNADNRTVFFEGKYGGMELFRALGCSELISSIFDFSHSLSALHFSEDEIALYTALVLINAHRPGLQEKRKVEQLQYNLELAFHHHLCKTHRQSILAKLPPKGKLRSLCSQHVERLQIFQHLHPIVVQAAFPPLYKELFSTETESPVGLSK
Experimental: Murine EL-4 lymphoma cell line overexpressing human RORγt was used in this functional assay to assess compound ability to inhibit IL-17 cytokine secretion.
EL-4 cells are maintained in a standard culture medium RPMI supplemented with 10% fetal calf serum, 1% sodium pyruvate, 1% essential amino acids and 1% antibiotics at 37° C. in a humidified atmosphere of 5% CO2 and 95% air. Culture medium was changed every 2 days. EL4 cells were transfected with a plasmid encoding hRORγt (sequence identical to published sequence NM 001001523). […] Briefly, 1 μg of DNA/1 million cells was served to transfect EL-4 cells. Cell/DNA suspension was transferred into certified cuvette and the electroporation of RORγt plasmid was carried out using appropriate Nucleofector® program.
Cells were seeded in 96 well plates at a density of 150000 cells/well then treated with compounds of this invention at indicated concentrations and incubated for 24 hours at 37° C. in a humidified atmosphere of 5% CO2 and 95% air. EL-4 cells were pretreated with test compounds (RORγ modulators) and stimulated with PMA (10 ng/mL) and ionomycin (1 μM final concentration) in the presence of test compound concentrations for additional 24 h at 37° C. in a humidified atmosphere of 5% CO2 and 95% air. Subsequently, supernatants were collected (after centrifugation at 300 g for 10 minutes) to determine the concentrations of IL-17 by HTRF (CisBio, France) or ELISA (R&D Systems Europe) according to the manufacturer's protocols.

human RORγt [3] = molecular target: T2, human RORγt; test: RORE Luciferase/RORγt transactivation assay (IL-17 promoter luciferase reporter in COS-7 cells); type: cell-based; design: V5-His (named only through the vector pcDNA3.1D/V5-His-TOPO); expressed in transfected cells; host or cells: COS-7 (monkey kidney); conditions: RORγt activity inhibition, luciferase activity in transfected COS-7 cells, 20 h
Outline: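 COS-7 cells co-transfected with human RORγt and luciferase reporter driven by 4.3 kb IL-17 promoter with CNS enhancer, seeded in serum-free, phenol red-free DMEM. Compounds added at 0.3% DMSO final; luciferase read by Steady-Glo luminescence. IC50 (μM) and Emax (%) reported.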

Compound | IC50 [1] [nM] | IC50 (human RORγt [2]) [nM] | IC50 (human RORγt [3]) [nM]
Cc1ccc(C(NC(=O)Cc2ccc(N3CCS(=O)(=O)CC3)c(C)c2)c2ccccc2)c(N2CC3CC3C2)c1 (stereo not drawn) [Cpd. 23, N-[(2-{3-azabicyclo[3.1.0]hexan-3-yl}-4-methylphenyl)(phenyl)methyl]-2-[4-(1,1-dioxo-1-thiomorpholin-4-yl)-3-methylphenyl]acetamide] | 100 to 1000 | 100 to 1000 | < 100
Cc1ccc(C(NC(=O)C2(c3ccc(N4CCS(=O)(=O)CC4)cc3)CC2)c2ccc(C)o2)c(N2CCCCC2)c1 (stereo not drawn) [Cpd. 32, 1-[4-(1,1-dioxo-1-thiomorpholin-4-yl)phenyl]-N-{[4-methyl-2-(piperidin-1-yl)phenyl](5-methylfuran-2-yl)methyl}cyclopropane-1-carboxamide] | 100 to 1000 | < 1000 | < 100
COc1ccc(C(NC(=O)C2(c3ccc(N4CCS(=O)(=O)CC4)cc3)CC2)c2ccc(C)o2)c(N2CCCCCC2)c1 (stereo not drawn) [Cpd. 46, N-{[2-(azepan-1-yl)-4-methoxyphenyl](5-methylfuran-2-yl)methyl}-1-[4-(1,1-dioxo-1-thiomorpholin-4-yl)phenyl]cyclopropane-1-carboxamide] | 100 to 1000 | < 1000 | < 100
Cc1ccc(C(NC(=O)C2(c3cnc(N4CCS(=O)(=O)CC4)nc3)CC2)c2ccc(Cl)cc2C)o1 (stereo not drawn) [Cpd. 53, N-[(4-chloro-2-methylphenyl)(5-methylfuran-2-yl)methyl]-1-[2-(1,1-dioxo-1-thiomorpholin-4-yl)pyrimidin-5-yl]cyclopropane-1-carboxamide] | < 1000 | 100 to 1000 | < 100
Cc1ccc(C(NC(=O)C2(c3cnc(N4CCS(=O)(=O)CC4)nc3)CC2)c2ccc(Cl)cc2Cl)o1 (stereo not drawn) [Cpd. 54, N-[(2,4-dichlorophenyl)(5-methylfuran-2-yl)methyl]-1-[2-(1,1-dioxo-1-thiomorpholin-4-yl)pyrimidin-5-yl]cyclopropane-1-carboxamide] | < 1000 | 100 to 1000 | 100 to 1000
CC(C)CC(NC(=O)C1(c2ccc(N3CCS(=O)(=O)CC3)cc2)CC1)c1ccccc1N1CCCCC1 (stereo not drawn) [Cpd. 59, 1-[4-(1,1-dioxo-1-thiomorpholin-4-yl)phenyl]-N-[3-methyl-1-[2-(piperidin-1-yl)phenyl]butyl]cyclopropane-1-carboxamide] | 100 to 1000 | 100 to 1000 | 1000 to 10000
Cc1ccc(C(NC(=O)C2(c3ccc(N4CCS(=O)(=O)CC4)cc3)CC2)c2ccccc2N2CCCCC2)o1 (stereo not drawn) [Cpd. 60, 1-[4-(1,1-dioxo-1-thiomorpholin-4-yl)phenyl]-N-[(5-methylfuran-2-yl)[2-(piperidin-1-yl)phenyl]methyl]cyclopropane-1-carboxamide] | < 1000 | < 1000 | 100 to 1000
Cc1ccc(C(NC(=O)C2(c3ccc(N4CCS(=O)(=O)CC4)cc3)CC2)c2ccc(Cl)o2)c(C)c1 (stereo not drawn) [Cpd. 66, N-[(5-chlorofuran-2-yl)(2,4-dimethylphenyl)methyl]-1-[4-(1,1-dioxo-1-thiomorpholin-4-yl)phenyl]cyclopropane-1-carboxamide] | < 1000 | < 1000 | < 100

Now from value to compound:

IC50 [1] [nM] | IC50 (human RORγt [2]) [nM] | IC50 (human RORγt [3]) [nM] | Compound
< 1000 | 100 to 1000 | < 100 | Cc1ccc(C(NC(=O)Cc2ccc(N3CCS(=O)(=O)CC3)cc2C)c2ccc(C)o2)c(Br)c1 (stereo not drawn) [Cpd. 21, N-[(2-bromo-4-methylphenyl)(5-methylfuran-2-yl)methyl]-2-[4-(1,1-dioxo-1-thiomorpholin-4-yl)-2-methylphenyl]acetamide]
< 1000 | 100 to 1000 | < 100 | Cc1ccc(C(NC(=O)Cc2ccc(N3CCS(=O)(=O)CC3)cc2)c2ccccc2)c(N2CC3CC3C2)c1 (stereo not drawn) [Cpd. 22, N-[(2-{3-azabicyclo[3.1.0]hexan-3-yl}-4-methylphenyl)(phenyl)methyl]-2-[4-(1,1-dioxo-1-thiomorpholin-4-yl)phenyl]acetamide]
< 1000 | 100 to 1000 | 100 to 1000 | Cc1ccc(C(NC(=O)Cc2ccc(N3CCOCC3)nc2)c2ccc(C)o2)c(N2CCCCC2)c1 (stereo not drawn) [Cpd. 25, N-{[4-methyl-2-(piperidin-1-yl)phenyl](5-methylfuran-2-yl)methyl}-2-[6-(morpholin-4-yl)pyridin-3-yl]acetamide]
< 1000 | < 1000 | < 100 | Cc1ccc(C(NC(=O)Cc2ccc(N3CCS(=O)(=O)CC3)nc2)c2ccc(C)o2)c(N2CCCCC2)c1 (stereo not drawn) [Cpd. 27, 2-[6-(1,1-dioxo-1-thiomorpholin-4-yl)pyridin-3-yl]-N-{[4-methyl-2-(piperidin-1-yl)phenyl](5-methylfuran-2-yl)methyl}acetamide]
< 1000 | 100 to 1000 | 100 to 1000 | Cc1ccc(C(NC(=O)Cc2cc(N3CCS(=O)(=O)CC3)ccc2C)c2ccc(C)o2)c(N2CC3CC3C2)c1 (stereo not drawn) [Cpd. 28, N-[(2-{3-azabicyclo[3.1.0]hexan-3-yl}-4-methylphenyl)(5-methylfuran-2-yl)methyl]-2-[5-(1,1-dioxo-1-thiomorpholin-4-yl)-2-methylphenyl]acetamide]
< 1000 | < 1000 | < 100 | Cc1ccc(C(NC(=O)C2(c3ccc(N4CCS(=O)(=O)CC4)cc3)CC2)c2ccc(C)o2)c(C)c1 (stereo not drawn) [Cpd. 31, N-[(2,4-dimethylphenyl)(5-methylfuran-2-yl)methyl]-1-[4-(1,1-dioxo-1-thiomorpholin-4-yl)phenyl]cyclopropane-1-carboxamide]
< 1000 | < 1000 | < 100 | Cc1ccc(C(NC(=O)Cc2cnc(N3CCS(=O)(=O)CC3)nc2C)c2ccc(C)o2)c(N2CCCCC2)c1 (stereo not drawn) [Cpd. 38, 2-[2-(1,1-dioxo-1-thiomorpholin-4-yl)-4-methylpyrimidin-5-yl]-N-{[4-methyl-2-(piperidin-1-yl)phenyl](5-methylfuran-2-yl)methyl}acetamide]
< 1000 | < 1000 | < 100 | Cc1ccc(C(NC(=O)Cc2ccc(O)c(N3CCS(=O)(=O)CC3)c2)c2ccc(C)o2)c(N2CCCCC2)c1 (stereo not drawn) [Cpd. 39, 2-[3-(1,1-dioxo-1-thiomorpholin-4-yl)-4-hydroxyphenyl]-N-{[4-methyl-2-(piperidin-1-yl)phenyl](5-methylfuran-2-yl)methyl}acetamide]
< 1000 | < 1000 | < 100 | Cc1ccc(C(NC(=O)C2(c3cnc(N4CCS(=O)(=O)CC4)nc3)CC2)c2ccc(C)o2)c(C)c1 (stereo not drawn) [Cpd. 48, N-[(2,4-dimethylphenyl)(5-methylfuran-2-yl)methyl]-1-[2-(1,1-dioxo-1-thiomorpholin-4-yl)pyrimidin-5-yl]cyclopropane-1-carboxamide]
< 1000 | 100 to 1000 | 1000 to 10000 | Cc1ccc(C(NC(=O)C2(c3cnc(N4CCS(=O)(=O)CC4)nc3)CC2)c2ccc(C)o2)c(Cl)c1 (stereo not drawn) [Cpd. 52, N-[(2-chloro-4-methylphenyl)(5-methylfuran-2-yl)methyl]-1-[2-(1,1-dioxo-1-thiomorpholin-4-yl)pyrimidin-5-yl]cyclopropane-1-carboxamide]
